Common to all, as to format: biochemical
The target in assay [1] is T1, human ROCK2 enzyme kinase domain (Homo sapiens, UniProt O75116).
T1 construct: GST; purchased Carna BioSciences 01-110
Put plainly: fluorescence coupling (TR-FRET) enzymatic assay, ROCK2. To be noted: 4 nM enzyme, 50 nM Ulight-CREBTide, one hour room temperature.

The target of assay [2] is T2, human AKT1 catalytic domain (Homo sapiens, UniProt P31749).
T2 construct: GST; purchased Carna BioSciences 01-101
Put plainly: fluorescence coupling (TR-FRET) enzymatic assay, AKT1 off-target control. To be noted: 0.5 nM enzyme, 4 μM ATP, 50 nM Ulight-CREBTide, one hour room temperature. Background: Time-resolved FRET reads energy transfer from a long-lived donor to a nearby acceptor.

The next assay addresses T3, PKACα (PRKACA) (Homo sapiens, UniProt P17612).
T3 construct: GST; purchased Carna BioSciences 01-127
Put plainly: fluorescence coupling (TR-FRET) enzymatic assay, PKACA off-target control. To be noted: 10 pM enzyme, 1 μM ATP, 50 nM Ulight-CREBTide, one hour room temperature.

Assay [3] addresses T4, human ROCK1 catalytic domain (Homo sapiens, UniProt Q13464).
T4 construct: GST; purchased Carna BioSciences 01-109
Put plainly: fluorescence coupling (TR-FRET) enzymatic assay, ROCK1. To be noted: 4 nM enzyme, 4 μM ATP, 50 nM Ulight-CREBTide, one hour room temperature; read-out: ROCK1 IC50.

The target of assay [4] is T5, cGMP-dependent protein kinase 1 (PKG or PRKG1) (Homo sapiens, UniProt Q13976).
T5 construct: GST; purchased Carna BioSciences 01-142
T5 sequence (Q13976 1-686 isoform Q13976-2): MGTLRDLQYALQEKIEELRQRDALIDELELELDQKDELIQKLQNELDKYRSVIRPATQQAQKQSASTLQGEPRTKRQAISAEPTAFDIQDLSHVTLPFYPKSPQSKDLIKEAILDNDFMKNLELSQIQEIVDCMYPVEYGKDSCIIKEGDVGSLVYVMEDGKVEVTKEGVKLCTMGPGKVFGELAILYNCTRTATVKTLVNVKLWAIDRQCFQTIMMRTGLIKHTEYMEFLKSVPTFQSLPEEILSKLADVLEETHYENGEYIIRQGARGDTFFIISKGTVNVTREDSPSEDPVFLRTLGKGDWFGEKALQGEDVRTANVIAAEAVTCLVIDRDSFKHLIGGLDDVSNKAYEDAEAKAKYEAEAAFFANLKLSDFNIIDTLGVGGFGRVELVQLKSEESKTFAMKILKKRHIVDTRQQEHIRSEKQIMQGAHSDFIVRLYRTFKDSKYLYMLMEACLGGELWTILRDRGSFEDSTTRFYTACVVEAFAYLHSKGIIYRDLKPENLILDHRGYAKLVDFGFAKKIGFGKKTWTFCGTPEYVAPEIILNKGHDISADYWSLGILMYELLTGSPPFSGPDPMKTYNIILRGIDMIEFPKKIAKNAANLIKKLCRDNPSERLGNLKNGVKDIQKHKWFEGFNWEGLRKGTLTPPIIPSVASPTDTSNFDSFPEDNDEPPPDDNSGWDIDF
Description: fluorescence coupling (TR-FRET) enzymatic assay, PKG off-target control. To be noted: 8 nM enzyme, 30 μM ATP, 50 nM Ulight-CREBTide, one hour room temperature.

T4 sequence (Q13464 1-477): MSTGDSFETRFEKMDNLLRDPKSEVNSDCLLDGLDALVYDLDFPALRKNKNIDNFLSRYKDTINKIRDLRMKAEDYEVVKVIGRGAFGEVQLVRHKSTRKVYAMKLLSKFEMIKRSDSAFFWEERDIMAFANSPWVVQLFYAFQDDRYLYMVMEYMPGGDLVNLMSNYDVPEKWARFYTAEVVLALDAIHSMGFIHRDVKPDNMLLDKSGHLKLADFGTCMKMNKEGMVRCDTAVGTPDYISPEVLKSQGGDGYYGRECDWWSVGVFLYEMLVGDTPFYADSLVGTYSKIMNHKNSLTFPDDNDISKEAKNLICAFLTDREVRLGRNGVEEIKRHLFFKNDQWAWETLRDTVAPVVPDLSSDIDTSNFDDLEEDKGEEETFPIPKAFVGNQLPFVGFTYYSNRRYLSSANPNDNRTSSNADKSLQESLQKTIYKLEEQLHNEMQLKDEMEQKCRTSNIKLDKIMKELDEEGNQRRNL
T2 sequence (P31749 104-480): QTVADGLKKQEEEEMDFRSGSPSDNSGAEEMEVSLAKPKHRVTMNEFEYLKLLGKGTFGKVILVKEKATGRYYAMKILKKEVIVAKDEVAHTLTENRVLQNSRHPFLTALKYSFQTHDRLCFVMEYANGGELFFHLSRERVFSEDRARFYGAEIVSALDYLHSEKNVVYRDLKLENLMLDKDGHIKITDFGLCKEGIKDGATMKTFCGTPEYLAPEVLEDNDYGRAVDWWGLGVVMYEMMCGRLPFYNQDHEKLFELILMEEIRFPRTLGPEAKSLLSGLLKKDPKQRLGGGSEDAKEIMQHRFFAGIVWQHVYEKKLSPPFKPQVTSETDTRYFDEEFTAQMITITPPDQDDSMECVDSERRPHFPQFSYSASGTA
T1 sequence (O75116 1-553): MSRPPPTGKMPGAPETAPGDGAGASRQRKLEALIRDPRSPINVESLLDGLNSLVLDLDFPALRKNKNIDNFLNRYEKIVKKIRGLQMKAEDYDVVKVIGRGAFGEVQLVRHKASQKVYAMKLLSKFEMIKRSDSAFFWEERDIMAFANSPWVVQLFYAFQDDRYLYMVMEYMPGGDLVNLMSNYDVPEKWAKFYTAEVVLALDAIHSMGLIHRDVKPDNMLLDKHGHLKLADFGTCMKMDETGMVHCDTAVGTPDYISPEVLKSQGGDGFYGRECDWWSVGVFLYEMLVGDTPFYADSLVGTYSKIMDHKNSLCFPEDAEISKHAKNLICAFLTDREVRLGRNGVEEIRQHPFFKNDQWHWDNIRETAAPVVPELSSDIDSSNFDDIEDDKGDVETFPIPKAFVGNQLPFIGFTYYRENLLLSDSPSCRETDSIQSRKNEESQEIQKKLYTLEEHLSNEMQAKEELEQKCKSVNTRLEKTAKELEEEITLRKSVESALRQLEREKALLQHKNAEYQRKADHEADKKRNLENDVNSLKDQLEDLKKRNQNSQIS

As for `CCNc1cc(C#N)cc2c1CCN2S(=O)(=O)c1cccc2c(=O)[nH]cc(Cl)c12` [Example 44, 1-((4-chloro-1-oxo-1,2-dihydroisoquinolin-5-yl)sulfonyl)-4-(ethylamino)indoline-6-carbonitrile], the IC50 (in general, the midpoint of a concentration-inhibition curve) in assay [1] was 1000 to 10000 nM; in assay [2] it was above 10000 nM; against PKACα (PRKACA) it was above 10000 nM; in assay [3], 1000 to 10000 nM; in assay [4], above 10000 nM.

As to `Cc1c[nH]c(=O)c2cccc(S(=O)(=O)N3CCc4c(NCCN5C[C@H]6C[C@@H]5CO6)cc(C#N)cc43)c12` [Example 45], the IC50 was below 100 nM in assay [1]; below 100 nM in assay [2]; 100 to 1000 nM at PKACα (PRKACA); below 100 nM in assay [3]; 1000 to 10000 nM in assay [4].

Values taken from patent US11912719B2, “Substituted isoquinolines as rock kinase inhibitors” (Cervello Therapeutics LLC, priority 2018, dated 2024).
